# Test results reported in article PMC12439166, “Dietary flavonoids form supramolecular assemblies, alter biochemistry, and enhance cell resilience” (Frontiers in Nutrition, 2025).
# Tested on: human fibroblasts
# Experiment: TMT proteomics of fibroblasts with and without UV exposure, differential expression and pathway analysis
# Assay type: cell-based
# Conditions: result in words
# Description: Human fibroblasts were obtained from Cell Applications Inc (Cat. # 106-05a) and were maintained in Dulbecco’s Modified Eagle medium (DMEM, Corning, Cat. #10-013-CV) with 10% fetal bovine serum (Gibco, Cat. #10082147) and 1% penicillin/streptomycin (Gibco, Cat. # 15070-063) in a humidified incubator with 5% CO2 at 37 °C. For ultraviolet radiation, fibroblasts were seeded in a 96-well plate at a density of 25,000 cells/well and maintained at 37 °C for 24 h. Cells were washed once with Hanks’ balanced salt solution (HBSS, Gibco, Cat. #14025-092), then treated for 1 h with different concentrations of compounds prepared in HBSS. Vitamin C (Sigma, Cat. # A5960) served as a positive control. Treated cells were exposed to ultraviolet light (UVP cross-linker, CL1000, 254 nm UV, 8 watts) at a total dose of 20 mJ/cm^2. Following irradiation, the HBSS was replaced with culture medium containing the same concentration of compounds as before irradiation, and cells were again maintained at 37 °C. Cell viability was measured at 24 h post-irradiation using CellTiter-Glo according to the manufacturer’s instructions (Promega, Cat.# G7571). Results were expressed as relative cell viability (%) with respect to control cells (cells without ultraviolet irradiation or compound treatment).
# Frozen cell pellets were dissolved for 15 min in 6M Guanidinium Chloride at room temperature to lyse cells. Then, each solution was run on a 10 kDa filter (Pall, TX) and washed with 50 μL of TEAB buffer at 3000 rpm. FASP Digestion ([56]): A stock solution of Trypsin Platinum, Mass Spec Grade (Promega) at 100 μg/mL in 50 mM TEAB, and a specific volume of stock trypsin was added to each sample vial for each set of […] using a 1:50 ratio (Trypsin:Protein). Samples were incubated for 2 h at 50 °C and shaken/mixed at 350 rpm on an Eppendorf ThermoMixer C. TMT Labeling: Samples, now peptides, were labeled using 4 μL of TMTpro Mass Tag Labels (ThermoScientific). After labeling, samples were then shaken/mixed for 45 min to ensure labels were covalently bonded to peptides. The labeling reaction was quenched for 10 min using 1 μL of 5% hydroxyalamine. After quenching, samples were pooled into one 2 mL Eppendorf tube and then dried down using an Eppendorf Vacufuge Plus. Desalting Samples: Dried samples were resuspended in 300 μL of 0.1% TFA in ultrapure HPLC-grade water and vortexed to ensure full solubility. Samples were then desalted using Pierce^TM Peptide Desalting Spin Columns (ThermoScientific). Final eluates (desalted samples) contained 600 μL of 50% HPLC-grade Acetonitrile and 50% ultrapure HPLC-grade water. Desalted samples were then transferred to HPLC vials and were again dried down. […]
smiles,measurement,setting,value
"O=C1O[C@H]([C@@H](O)CO)C(O)=C1O [Vitamin C, reference compound]","proteins/pathways up- and downregulated, exposed to UV radiation",UV-irradiated cells,primarily upregulated proteins associated with cell cycle/DNA repair-related pathways
same,"proteins/pathways up- and downregulated, without UV treatment",control conditions without UV,opposite effects
